Reference: the supplement of paper PMC10307832

Tests used:
Test in all cases: relative viability (nuclei count vs DMSO), 5 days (fraction); higher = more cells survive
GW-2580 = compound: COC1=CC=C(C=C1)COC2=C(C=C(C=C2)CC3=CN=C(N=C3N)N)OC [GW-2580]
Summary of the method: (§1)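 Viability was read as treated-well nuclei divided by vehicle-well nuclei, using the median across plates. Lung cancer cell lines in 1536-well plates were kept overnight at 37 °C, pinned with five √10-spaced library-drug doses, and after 5 days were Hoechst-stained, imaged at 4× and counted in MetaXpress. Plates passed only with control CV below 25% and at least one doubling.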

Fedratinib = compound: Cc1cnc(Nc2ccc(OCCN3CCCC3)cc2)nc1Nc1cccc(S(=O)(=O)NC(C)(C)C)c1 [Fedratinib]
Summary of the method: as §1

GW-2580 + OSI-027 = compound: COC1=CC=C(C=C1)COC2=C(C=C(C=C2)CC3=CN=C(N=C3N)N)OC [GW-2580] + COc1cccc2cc(-c3nc([C@H]4CC[C@H](C(=O)O)CC4)n4ncnc(N)c34)[nH]c12 [OSI-027] (partner 0.5 µM)
Summary of the method: (§2)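 The day after seeding in 1536-well plates, lung cancer cell lines were treated by pin tool with a single drug, or with a fixed anchor-drug dose together with five library-drug doses (not always all listed) in √10 steps. After 5 days, a combined fix-and-stain solution (final 0.05% Triton X-100, 1% formaldehyde, 1 ug/ml Hoechst) was added. Nuclei counted on 4× images gave relative viability as treated counts over vehicle counts, reported as the median of duplicate plates.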

Fedratinib + Pemetrexed = compound: Cc1cnc(Nc2ccc(OCCN3CCCC3)cc2)nc1Nc1cccc(S(=O)(=O)NC(C)(C)C)c1 [Fedratinib] + Nc1nc2[nH]cc(CCc3ccc(C(=O)N[C@@H](CCC(=O)O)C(=O)O)cc3)c2c(=O)[nH]1 [Pemetrexed] (partner 0.2 µM)
Summary of the method: as §2

Fedratinib + Vorinostat = compound: Cc1cnc(Nc2ccc(OCCN3CCCC3)cc2)nc1Nc1cccc(S(=O)(=O)NC(C)(C)C)c1 [Fedratinib] + O=C(CCCCCCC(=O)Nc1ccccc1)NO [Vorinostat] (partner 1 µM)
Summary of the method: as §2

Cell Line | relative viability (GW-2580; 0.08 µM) | relative viability (GW-2580; 0.8 µM) | relative viability (GW-2580; 2.53 µM) | relative viability (GW-2580; 8 µM) | relative viability (Fedratinib; 0.1 µM) | relative viability (Fedratinib; 0.3162 µM) | relative viability (Fedratinib; 1 µM) | relative viability (GW-2580 + OSI-027; first compound 0.08 µM) | relative viability (GW-2580 + OSI-027; first compound 0.8 µM) | relative viability (GW-2580 + OSI-027; first compound 2.53 µM) | relative viability (GW-2580 + OSI-027; first compound 8 µM) | relative viability (Fedratinib + Pemetrexed; first compound 0.1 µM) | relative viability (Fedratinib + Pemetrexed; first compound 0.3162 µM) | relative viability (Fedratinib + Pemetrexed; first compound 1 µM) | relative viability (Fedratinib + Vorinostat; first compound 0.1 µM) | relative viability (Fedratinib + Vorinostat; first compound 0.3162 µM) | relative viability (Fedratinib + Vorinostat; first compound 1 µM)
NCI-H460 | 1.07 | 1.05 | 1.01 | 0.952 | 0.997 | 0.974 | 0.979 | 0.996 | 0.864 | 0.679 | 0.656 | 0.0603 | 0.0665 | 0.0598 | 1.14 | 0.768 | 0.736
NCI-H520 | 1.09 | 1.13 | 0.894 | 1.12 | 0.93 | 0.997 | 0.9 | 0.276 | 0.316 | 0.241 | 0.272 | 0.804 | 0.59 | 0.436 | 0.657 | 0.654 | 0.634
NCI-H522 | 0.969 | 0.9 | 0.957 | 0.996 | 0.971 | 1.16 | 0.758 | 0.688 | 0.618 | 0.845 | 0.723 | 0.767 | 0.951 | 0.902 | 0.703 | 0.82 | 0.895
NCI-H596 | 1.03 | 1.07 | 1.02 | 1.18 | 0.99 | 0.973 | 0.851 | 0.823 | 0.733 | 0.76 | 0.808 | 0.511 | 0.511 | 0.426 | 0.602 | 0.573 | 0.439
NCI-H647 | 1.12 | 1.14 | 0.846 | 0.97 | 0.867 | 0.952 | 0.777 | 0.68 | 0.612 | 0.646 | 0.745 | 0.172 | 0.146 | 0.134 | 0.61 | 0.782 | 0.385
NCI-H650 | 0.974 | 1.04 | 0.817 | 0.961 | 0.709 | 0.892 | 0.418 | 0.55 | 0.585 | 0.465 | 0.518 | 0.866 | 0.887 | 0.835 | 0.381 | 0.42 | 0.332
NCI-H661 | 1.03 | 1.04 | 0.951 | 0.814 | 0.876 | 1.06 | 0.914 | 0.739 | 0.754 | 0.644 | 0.543 | 0.939 | 0.928 | 0.883 | 0.785 | 0.833 | 0.716
NCI-H838 | 1.09 | 1.05 | 0.884 | 1 | 0.928 | 0.996 | 0.8 | 0.413 | 0.428 | 0.472 | 0.431 | 0.236 | 0.224 | 0.225 | 0.713 | 0.693 | 0.575
NCI-H1355 | 1.03 | 1.11 | 0.837 | 0.976 | 1 | 0.993 | 0.904 | 0.378 | 0.466 | 0.37 | 0.35 | 1.08 | 1.05 | 1.06 | 0.688 | 0.622 | 0.596
NCI-H1395 | 0.866 | 0.979 | 0.877 | 0.935 | 0.784 | 0.955 | 0.7 | 0.64 | 0.689 | 0.661 | 0.684 | 0.728 | 0.952 | 0.665 | 0.588 | 0.807 | 0.561
NCI-H1437 | 1 | 1.06 | 0.926 | 0.835 | 0.978 | 0.982 | 0.926 | 0.943 | 0.864 | 0.889 | 0.85 | 0.244 | 0.309 | 0.313 | 0.816 | 0.892 | 0.922
NCI-H1648 | 0.82 |  | 0.929 | 0.888 | 0.889 | 0.901 | 0.694 | 0.27 |  |  | 0.231 | 0.598 | 0.675 | 0.328 | 0.291 | 0.36 | 0.616
NCI-H1650 | 1.08 | 1.11 | 0.83 | 1.05 | 0.715 | 1.01 | 0.748 | 0.738 | 0.747 | 0.624 | 0.464 | 0.292 | 0.312 | 0.37 | 0.433 | 0.581 | 0.605
NCI-H1651 | 1.06 | 1.08 | 0.952 | 0.977 | 0.958 | 0.984 | 0.945 | 0.804 | 0.753 | 0.748 | 0.896 | 0.457 | 0.543 | 0.57 | 0.498 | 0.567 | 0.552
NCI-H1666 | 0.976 | 1.38 | 0.937 | 0.97 | 0.859 | 1.04 | 0.982 | 0.941 | 1.12 | 0.911 | 0.77 | 0.793 | 0.869 | 0.831 | 1.07 | 1.1 | 0.928
NCI-H1734 | 0.987 | 0.986 | 0.912 | 0.914 | 1 | 0.97 | 0.853 | 0.617 | 0.65 | 0.582 | 0.537 | 0.442 | 0.435 | 0.356 | 1.07 | 0.796 | 0.685
NCI-H1755 | 1.06 | 1.07 | 0.944 | 0.878 | 0.991 | 1 | 0.909 | 0.757 | 0.676 | 0.686 | 0.703 | 0.506 | 0.416 | 0.449 | 0.761 | 0.786 | 0.705
NCI-H1793 | 0.95 | 1.05 | 0.711 | 0.852 | 0.884 | 0.886 | 0.619 | 0.365 | 0.323 | 0.306 | 0.254 | 0.81 | 0.847 | 0.724 | 0.749 | 0.621 | 0.515
